Experimental data from PMC8696028, “Tricarboxylate Citrate Transporter of an Oleaginous Fungus Mucor circinelloides WJ11: From Function to Structure and Role in Lipid Production” (Frontiers in Nutrition, 2021).

Target: T1, Tct (tricarboxylate citrate transporter; tricarboxylate carrier) (Mucor circinelloides, UniProt S2K4S3)
T1 construct: gene HMPREF1544_06035; full-length tct (321 residues), E. coli codon-optimised, pET30a(+) NdeI/HindIII with C-terminal His tag, E. coli BL21(DE3); urea-denatured, Ni-purified, renatured, reconstituted in liposomes
Assay: […]citrate/citrate exchange in Tct-reconstituted proteoliposomes, inhibitor-stop method
Assay type: biochemical
Conditions: 10 mM internal citrate, 0.01 mM external [14C]citrate, 2 min

T1 sequence (S2K4S3 entry or part of it): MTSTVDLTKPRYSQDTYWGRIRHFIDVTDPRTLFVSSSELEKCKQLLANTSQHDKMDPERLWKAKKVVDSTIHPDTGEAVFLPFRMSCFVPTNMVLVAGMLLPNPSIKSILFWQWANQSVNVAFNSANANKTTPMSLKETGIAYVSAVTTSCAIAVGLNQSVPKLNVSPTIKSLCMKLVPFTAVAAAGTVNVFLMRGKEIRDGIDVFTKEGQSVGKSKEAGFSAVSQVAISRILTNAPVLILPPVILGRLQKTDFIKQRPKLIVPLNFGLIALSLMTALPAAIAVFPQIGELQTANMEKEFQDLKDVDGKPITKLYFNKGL

Cc1ncc(COP(=O)(O)O)c(C=O)c1O [pyridoxal 5'-phosphate]
inhibition at 20 mM: Pyridoxal-5'-phosphate (PLP) and pHMB strongly inhibit Tct transport activity
